Reference: patent US8138168B1 (Takeda Pharmaceutical Company Limited, priority 2007, dated 2012)

Each molecule was assayed against T1, Recombinant human renin (Homo sapiens, UniProt P00797) (assay: In vitro enzymatic activity assay of renin inhibitors (fluorogenic peptide substrate)). Conditions: read-out: IC50 of Exemplified Compounds Against Renin.
T1 construct: isolate the active form (residues 67-406); made in house; host or cells: FreeStyle 293-F cells (transient expression of pcDNA3.1(+)/hREN)
T1 sequence (P00797 67-406): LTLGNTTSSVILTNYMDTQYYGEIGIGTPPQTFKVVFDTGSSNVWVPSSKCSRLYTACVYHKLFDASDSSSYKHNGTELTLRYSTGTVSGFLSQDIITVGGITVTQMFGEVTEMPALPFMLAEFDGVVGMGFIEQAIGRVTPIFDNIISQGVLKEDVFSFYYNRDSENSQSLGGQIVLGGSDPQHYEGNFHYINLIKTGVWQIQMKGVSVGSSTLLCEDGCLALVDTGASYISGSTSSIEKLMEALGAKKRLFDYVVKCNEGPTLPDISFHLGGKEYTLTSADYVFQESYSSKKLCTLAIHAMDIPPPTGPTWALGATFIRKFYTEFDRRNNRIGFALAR
Type: biochemical
Method in brief: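 Enzyme: recombinant human renin, 3 nM final, 10 min compound pre-incubation at 37 °C; buffer 50 mM Hepes pH 7.4 with 0.1 mg/mL BSA or extra 2% BSA; 5% DMSO.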

Compound	IC50
COCCCn1c([C@@H]2CCCN(C(=O)C[C@H](N)CNC(=O)c3cc4ccccc4o3)C2)nc2ccccc21 [Compound 263, N-((S)-2-amino-4-((R)-3-(1-(3-methoxypropyl)-1H-benzo[d]imidazol-2-yl)piperidin-1-yl)-4-oxobutyl)benzofuran-2-carboxamide]	100 to 1000 nM
COCCCn1c([C@@H]2CCCN(C(=O)C[C@H](N)CNC(=O)c3ccc(-c4ccccc4)cc3)C2)nc2ccccc21 [Compound 264, N-((S)-2-amino-4-((R)-3-(1-(3-methoxypropyl)-1H-benzo[d]imidazol-2-yl)piperidin-1-yl)-4-oxobutyl)biphenyl-4-carboxamide]	100 to 1000 nM
COCCCn1c([C@@H]2CCCN(C(=O)C[C@H](N)CNC(=O)Nc3ccccc3OC(F)(F)F)C2)nc2ccccc21 [Compound 265, 1-((S)-2-amino-4-((R)-3-(1-(3-methoxypropyl)-1H-benzo[d]imidazol-2-yl)piperidin-1-yl)-4-oxobutyl)-3-(2-(trifluoromethoxy)phenyl)urea]	100 to 1000 nM
COCCCn1c([C@@H]2CCCN(C(=O)C[C@H](N)CNC(=O)Nc3ccc4c(c3)CCC4)C2)nc2ccccc21 [Compound 266, 1-((S)-2-amino-4-((R)-3-(1-(3-methoxypropyl)-1H-benzo[d]imidazol-2-yl)piperidin-1-yl)-4-oxobutyl)-3-(2,3-dihydro-1H-inden-5-yl)urea]	100 to 1000 nM
COCCCn1c([C@@H]2CCCN(C(=O)C[C@H](N)CNC(=O)c3ccc(-c4ccc(Cl)cc4Cl)o3)C2)nc2ccccc21 [Compound 267, N-((S)-2-amino-4-((R)-3-(1-(3-methoxypropyl)-1H-benzo[d]imidazol-2-yl)piperidin-1-yl)-4-oxobutyl)-5-(2,4-dichlorophenyl)furan-2-carboxamide]	100 to 1000 nM
COCCCn1c([C@@H]2CCCN(C(=O)C[C@H](N)CNC(=O)Nc3cc(C(C)(C)C)ccc3OC)C2)nc2ccccc21 [Compound 268, 1-((S)-2-amino-4-((R)-3-(1-(3-methoxypropyl)-1H-benzo[d]imidazol-2-yl)piperidin-1-yl)-4-oxobutyl)-3-(5-tert-butyl-2-methoxyphenyl)urea]	100 to 1000 nM
COCCCn1c([C@@H]2CCCN(C(=O)C[C@H](N)CNC(=O)Nc3ccccc3)C2)nc2ccccc21 [Compound 269, 1-((S)-2-amino-4-((R)-3-(1-(3-methoxypropyl)-1H-benzo[d]imidazol-2-yl)piperidin-1-yl)-4-oxobutyl)-3-phenylurea]	100 to 1000 nM
COCCCn1c([C@@H]2CCCN(C(=O)C[C@H](N)CNC(=O)c3cccc(Oc4ccccc4)c3)C2)nc2ccccc21 [Compound 270, N-((S)-2-amino-4-((R)-3-(1-(3-methoxypropyl)-1H-benzo[d]imidazol-2-yl)piperidin-1-yl)-4-oxobutyl)-3-phenoxybenzamide]	100 to 1000 nM
COCCCn1c([C@@H]2CCCN(C(=O)C[C@H](N)CNC(=O)c3ccc4c(c3)CCO4)C2)nc2ccccc21 [Compound 271, N-((S)-2-amino-4-((R)-3-(1-(3-methoxypropyl)-1H-benzo[d]imidazol-2-yl)piperidin-1-yl)-4-oxobutyl)-2,3-dihydrobenzofuran-5-carboxamide]	100 to 1000 nM
COCCCn1c([C@@H]2CCCN(C(=O)C[C@H](N)CNC(=O)Nc3ccccc3Oc3ccccc3)C2)nc2ccccc21 [Compound 272, 1-((S)-2-amino-4-((R)-3-(1-(3-methoxypropyl)-1H-benzo[d]imidazol-2-yl)piperidin-1-yl)-4-oxobutyl)-3-(2-phenoxyphenyl)urea]	100 to 1000 nM
COCCCn1c([C@@H]2CCCN(C(=O)C[C@H](N)CNC(=O)Nc3cc(OC)ccc3OC)C2)nc2ccccc21 [Compound 273, 1-((S)-2-amino-4-((R)-3-(1-(3-methoxypropyl)-1H-benzo[d]imidazol-2-yl)piperidin-1-yl)-4-oxobutyl)-3-(2,5-dimethoxyphenyl)urea]	100 to 1000 nM
COCCCn1c([C@@H]2CCCN(C(=O)C[C@H](N)CNC(=O)Nc3ccccc3OC(F)F)C2)nc2ccccc21 [Compound 274, 1-((S)-2-amino-4-((R)-3-(1-(3-methoxypropyl)-1H-benzo[d]imidazol-2-yl)piperidin-1-yl)-4-oxobutyl)-3-(2-(difluoromethoxy)phenyl)urea]	100 to 1000 nM
COCCCn1c([C@@H]2CCCN(C(=O)C[C@H](N)CNC(=O)c3ccc(-c4ccccc4[N+](=O)[O-])o3)C2)nc2ccccc21 [Compound 275, N-((S)-2-amino-4-((R)-3-(1-(3-methoxypropyl)-1H-benzo[d]imidazol-2-yl)piperidin-1-yl)-4-oxobutyl)-5-(2-nitrophenyl)furan-2-carboxamide]	100 to 1000 nM
COCCCn1c([C@@H]2CCCN(C(=O)C[C@H](N)CNC(=O)c3ccc(-c4cc(Cl)ccc4Cl)o3)C2)nc2ccccc21 [Compound 276, N-((S)-2-amino-4-((R)-3-(1-(3-methoxypropyl)-1H-benzo[d]imidazol-2-yl)piperidin-1-yl)-4-oxobutyl)-5-(2,5-dichlorophenyl)furan-2-carboxamide]	100 to 1000 nM
COCCCn1c([C@@H]2CCCN(C(=O)C[C@H](N)CNC(=O)c3ccc(-c4cccc(Cl)c4Cl)o3)C2)nc2ccccc21 [Compound 277, N-((S)-2-amino-4-((R)-3-(1-(3-methoxypropyl)-1H-benzo[d]imidazol-2-yl)piperidin-1-yl)-4-oxobutyl)-5-(2,3-dichlorophenyl)furan-2-carboxamide]	100 to 1000 nM
COCCCn1c([C@@H]2CCCN(C(=O)C[C@H](N)CNC(=O)c3ccc(Oc4ccccc4)cc3)C2)nc2ccccc21 [Compound 278, N-((S)-2-amino-4-((R)-3-(1-(3-methoxypropyl)-1H-benzo[d]imidazol-2-yl)piperidin-1-yl)-4-oxobutyl)-4-phenoxybenzamide]	100 to 1000 nM
COCCCn1c([C@@H]2CCCN(C(=O)C[C@H](N)CNC(=O)Nc3ccc(OC)cc3OC)C2)nc2ccccc21 [Compound 279, 1-((S)-2-amino-4-((R)-3-(1-(3-methoxypropyl)-1H-benzo[d]imidazol-2-yl)piperidin-1-yl)-4-oxobutyl)-3-(2,4-dimethoxyphenyl)urea]	100 to 1000 nM
COCCCn1c([C@@H]2CCCN(C(=O)C[C@H](N)CNC(=O)c3ccc(OC)cc3)C2)nc2ccccc21 [Compound 280, N-((S)-2-amino-4-((R)-3-(1-(3-methoxypropyl)-1H-benzo[d]imidazol-2-yl)piperidin-1-yl)-4-oxobutyl)-4-methoxybenzamide]	100 to 1000 nM
COCCCn1c([C@@H]2CCCN(C(=O)C[C@H](N)CNS(=O)(=O)c3ccc(Cl)cc3)C2)nc2ccccc21 [Compound 281, N-((S)-2-amino-4-((R)-3-(1-(3-methoxypropyl)-1H-benzo[d]imidazol-2-yl)piperidin-1-yl)-4-oxobutyl)-4-chlorobenzenesulfonamide]	100 to 1000 nM
COCCCn1c([C@@H]2CCCN(C(=O)C[C@H](N)CNC(=O)c3cccc(C(=O)OC)c3)C2)nc2ccccc21 [Compound 282, methyl 3-((S)-2-amino-4-((R)-3-(1-(3-methoxypropyl)-1H-benzo[d]imidazol-2-yl)piperidin-1-yl)-4-oxobutylcarbamoyl)benzoate]	100 to 1000 nM
COCCCn1c([C@@H]2CCCN(C(=O)C[C@H](N)CNC(=O)Nc3ccc(Cl)cc3)C2)nc2ccccc21 [Compound 283, 1-((S)-2-amino-4-((R)-3-(1-(3-methoxypropyl)-1H-benzo[d]imidazol-2-yl)piperidin-1-yl)-4-oxobutyl)-3-(4-chlorophenyl)urea]	100 to 1000 nM
COCCCn1c([C@@H]2CCCN(C(=O)C[C@H](N)CNC(=O)Nc3ccccc3SC)C2)nc2ccccc21 [Compound 284, 1-((S)-2-amino-4-((R)-3-(1-(3-methoxypropyl)-1H-benzo[d]imidazol-2-yl)piperidin-1-yl)-4-oxobutyl)-3-(2-(methylthio)phenyl)urea]	100 to 1000 nM
CCOc1ccccc1NC(=O)NC[C@@H](N)CC(=O)N1CCC[C@@H](c2nc3ccccc3n2CCCOC)C1 [Compound 285, 1-((S)-2-amino-4-((R)-3-(1-(3-methoxypropyl)-1H-benzo[d]imidazol-2-yl)piperidin-1-yl)-4-oxobutyl)-3-(2-ethoxyphenyl)urea]	100 to 1000 nM
CCCc1ccccc1NC(=O)NC[C@@H](N)CC(=O)N1CCC[C@@H](c2nc3ccccc3n2CCCOC)C1 [Compound 286, 1-((S)-2-amino-4-((R)-3-(1-(3-methoxypropyl)-1H-benzo[d]imidazol-2-yl)piperidin-1-yl)-4-oxobutyl)-3-(2-propylphenyl)urea]	100 to 1000 nM
COCCCn1c([C@@H]2CCCN(C(=O)C[C@H](N)CNC(=O)Nc3cc(C)ccc3OC)C2)nc2ccccc21 [Compound 287, 1-((S)-2-amino-4-((R)-3-(1-(3-methoxypropyl)-1H-benzo[d]imidazol-2-yl)piperidin-1-yl)-4-oxobutyl)-3-(2-methoxy-5-methylphenyl)urea]	100 to 1000 nM
COCCCn1c([C@@H]2CCCN(C(=O)C[C@H](N)CNC(=O)Nc3cccc(Oc4ccccc4)c3)C2)nc2ccccc21 [Compound 288, 1-((S)-2-amino-4-((R)-3-(1-(3-methoxypropyl)-1H-benzo[d]imidazol-2-yl)piperidin-1-yl)-4-oxobutyl)-3-(3-phenoxyphenyl)urea]	100 to 1000 nM
COCCCn1c([C@@H]2CCCN(C(=O)C[C@H](N)CNC(=O)c3c(Cl)cccc3Cl)C2)nc2ccccc21 [Compound 289, N-((S)-2-amino-4-((R)-3-(1-(3-methoxypropyl)-1H-benzo[d]imidazol-2-yl)piperidin-1-yl)-4-oxobutyl)-2,6-dichlorobenzamide]	100 to 1000 nM
